Measurements: US20220323356A1, “METAL (HYDR)OXIDE COMPOSITE COMPRISING POORLY SOLUBLE DRUG, METHOD FOR PREPARING SAME, AND PHARMACEUTICAL COMPOSITION COMPRISING SAME” (priority 2020, published 2022)
Counter-ions that a name gives are not always drawn.

assay: In-vivo pharmacokinetic analysis of calcined metal (hydr)oxide-docetaxel compositions, single oral administration; details: rat, 40 mg/kg

SMILES	AUC(0-t) [µg·h/mL]	Tmax [h]	half-life [h]
CC(=O)O[C@@]12CO[C@@H]1C[C@H](O)[C@@]1(C)C(=O)[C@H](O)C3=C(C)[C@@H](OC(=O)[C@H](O)[C@@H](NC(=O)OC(C)(C)C)c4ccccc4)C[C@@](O)([C@@H](OC(=O)c4ccccc4)[C@H]21)C3(C)C [Docetaxel]	0.0475	0.5	9.41

same assay, conditions: rat, 40 mg/kg, Cmax, Docetaxel PO 40 mg/kg, rats

SMILES	Cmax [ng/mL]
CC(=O)O[C@@]12CO[C@@H]1C[C@H](O)[C@@]1(C)C(=O)[C@H](O)C3=C(C)[C@@H](OC(=O)[C@H](O)[C@@H](NC(=O)OC(C)(C)C)c4ccccc4)C[C@@](O)([C@@H](OC(=O)c4ccccc4)[C@H]21)C3(C)C [Docetaxel]	5.25

assay: not given; details: in vivo; cited from earlier work

SMILES	bioavailability (%)
CC(=O)O[C@@]12CO[C@@H]1C[C@H](O)[C@@]1(C)C(=O)[C@H](O)C3=C(C)[C@@H](OC(=O)[C@H](O)[C@@H](NC(=O)OC(C)(C)C)c4ccccc4)C[C@@](O)([C@@H](OC(=O)c4ccccc4)[C@H]21)C3(C)C [Docetaxel]	8%
OC(c1cc(C(F)(F)F)nc2c(C(F)(F)F)cccc12)C1CCCCN1 (centres unmarked) [mefloquine]	85%
COc1ccc2[nH]cc(CCNC(C)=O)c2c1 [melatonin]	15%
O=C(Nc1ccc([N+](=O)[O-])cc1Cl)c1cc(Cl)ccc1O [niclosamide]	10%
Cc1cn(-c2cc(NC(=O)c3ccc(C)c(Nc4nccc(-c5cccnc5)n4)c3)cc(C(F)(F)F)c2)cn1 [nilotinib]	30%
C=CC(=O)Nc1cc(Nc2nccc(-c3cn(C)c4ccccc34)n2)c(OC)cc1N(C)CCN(C)C [osimertinib(AZD-9291), osimertinib]	70%
Cc1ccc(Nc2nccc(N(C)c3ccc4c(C)n(C)nc4c3)n2)cc1S(N)(=O)=O [pazopanib]	14-39%
CC(=O)CCCCn1c(=O)c2c(ncn2C)n(C)c1=O [pentoxifylline]	20%
C1CCC(C(CC2CCCCN2)C2CCCCC2)CC1 (centres unmarked) [perhexiline maleate]	80%
CCCN[C@H]1CCc2nc(N)sc2C1 [pramipexole]	90%
CC(C)(Sc1cc(C(C)(C)C)c(O)c(C(C)(C)C)c1)Sc1cc(C(C)(C)C)c(O)c(C(C)(C)C)c1 [probucol]	6%
C[C@@H]1O[C@@H](O[C@@H]2C=C3CC[C@@H]4[C@H](CC[C@]5(C)[C@@H](c6ccc(=O)oc6)CC[C@]45O)[C@@]3(C)CC2)[C@H](O)[C@H](O)[C@H]1O [proscillaridin]	25%
O=c1c(O)c(-c2ccc(O)c(O)c2)oc2cc(O)cc(O)c12 [quercetin]	20%
CC[C@@H](C(=O)[C@@H](C)[C@@H](O)[C@H](C)[C@@H]1O[C@@H]([C@@H](CC)C(=O)O)CC[C@@H]1C)[C@H]1O[C@]2(C=C[C@@H](O)[C@]3(CC[C@@](C)([C@H]4CC[C@](O)(CC)[C@H](C)O4)O3)O2)[C@H](C)C[C@@H]1C [salinomycin]	73%
Cc1c(C(=O)Nc2ccc(N3C[C@@H](C)O[C@@H](C)C3)nc2)cccc1-c1ccc(OC(F)(F)F)cc1 [sonidegib]	69%
Cn1nnc2c(C(N)=O)ncn2c1=O [temozolomide]	100%
CSc1ccc2c(c1)N(CCC1CCCCN1C)c1ccccc1S2 (centres unmarked) [thioridazine]	28%
CN(C)CCOc1ccc(/C(=C(/CCCl)c2ccccc2)c2ccccc2)cc1 [toremifene]	100%
CC(=O)Nc1cccc(-n2c(=O)n(C3CC3)c(=O)c3c(Nc4ccc(I)cc4F)n(C)c(=O)c(C)c32)c1 [trametinib]	72%
